PubChem BioAssay (NCI)
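Values below derive from 48-hour exposures of cells grown in 96-well plates, with endpoints linearly interpolated between the two concentrations bracketing the appropriate inhibition level. TGI is the concentration that stops growth completely.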

Columns and labels:
Experiment in all cases: NCI tumour cell line growth inhibition, 48 h
MDA-MB-435 = test system: MDA-MB-435
HS 578T breast = test system: HS 578T breast
SK-MEL-2 melanoma = test system: SK-MEL-2 melanoma
SW-620 colon = test system: SW-620 colon
HCT-15 colon = test system: HCT-15 colon
SF-539 CNS = test system: SF-539 CNS
RXF 393 renal = test system: RXF 393 renal
SN12C renal = test system: SN12C renal
LOX IMVI melanoma = test system: LOX IMVI melanoma
RPMI-8226 leukemia = test system: RPMI-8226 leukemia
SK-MEL-5 melanoma = test system: SK-MEL-5 melanoma
NCI-H226 lung = test system: NCI-H226 lung
SF-268 CNS = test system: SF-268 CNS
BT-549 breast = test system: BT-549 breast
NCI-H23 lung = test system: NCI-H23 lung
COLO 205 colon = test system: COLO 205 colon
SK-OV-3 ovarian = test system: SK-OV-3 ovarian
KM12 colon = test system: KM12 colon
OVCAR-3 ovarian = test system: OVCAR-3 ovarian
DU-145 prostate = test system: DU-145 prostate

Compound | TGI (MDA-MB-435) | TGI (HS 578T breast) | TGI (SK-MEL-2 melanoma) | TGI (SW-620 colon) | TGI (HCT-15 colon) | TGI (SF-539 CNS) | TGI (RXF 393 renal) | TGI (SN12C renal) | TGI (LOX IMVI melanoma) | TGI (RPMI-8226 leukemia) | TGI (SK-MEL-5 melanoma) | TGI (NCI-H226 lung) | TGI (SF-268 CNS) | TGI (BT-549 breast) | TGI (NCI-H23 lung) | TGI (COLO 205 colon) | TGI (SK-OV-3 ovarian) | TGI (KM12 colon) | TGI (OVCAR-3 ovarian) | TGI (DU-145 prostate)
N#Cc1c(N)nc(SCc2ccccc2)c(C#N)c1-c1ccc(O)cc1 | 25.7 µM | > 100 µM | 35.5 µM | 41.6 µM | 30.4 µM | 57.5 µM | 45.1 µM | 33.4 µM | 43 µM | 29.8 µM | 27.1 µM | 48.2 µM | 66.9 µM | 24.7 µM | 33.2 µM | 37.8 µM | 31.4 µM | 25.8 µM | 33.4 µM | 27.2 µM
Cc1nc2c(O)c3c(c(O)c2nc1C)C1C=CC3CC1 | 6.2 µM | 78.3 µM | 33 µM | 30.3 µM | 34.8 µM | 22 µM | 22.6 µM | 27.4 µM | 9.95 µM | 15.4 µM | 27.7 µM | 56.2 µM | 32.9 µM | 30.4 µM | 26.5 µM | 38.4 µM | 55.2 µM | 31.5 µM | 21.2 µM | > 100 µM
Nc1nc(Cl)c(N)c(NCC2(CO)CCC(CCc3ccccc3)C2)n1 (stereo not given) | 27 µM | > 63.8 µM | 31.7 µM | 27.2 µM | 41.8 µM | 33.7 µM | 37.2 µM | 63.2 µM | 25.9 µM | 47.7 µM | 15.1 µM | 42.5 µM | 40.2 µM | 32.6 µM | 28.6 µM | 25.1 µM | 63.8 µM | 28.9 µM | 50.3 µM | 55.1 µM
CSC1(C(=O)O)C2CCC3C2CCC31 (stereo not given) | > 100 µM | > 100 µM | > 100 µM | > 100 µM | > 100 µM | > 100 µM | > 100 µM | > 100 µM | > 100 µM | > 100 µM | > 100 µM | > 100 µM | > 100 µM | > 100 µM | > 100 µM | > 100 µM | > 100 µM | > 100 µM | > 100 µM | > 100 µM
CC(C)(C)C1=CC(=C2C=Cc3cc(O)ccc3O2)C=C(C(C)(C)C)C1=O | 3.55 µM | 8.22 µM | 3.09 µM | 3.48 µM | 5.51 µM | 3.4 µM | 3.16 µM | 3.02 µM | 3.03 µM | 4.21 µM | 2.94 µM | 3.43 µM | 3.87 µM | 3.55 µM | 3.58 µM | 3.25 µM | 4.09 µM | 3.73 µM | 2.72 µM | 3.03 µM
O=C(Cn1c(C(=O)/C=C/c2ccc(Cl)cc2)nc2ccccc21)c1ccc(Cl)cc1 | 37.5 µM | 29.1 µM | 39.5 µM | > 100 µM | 51.8 µM | 38.6 µM | 32.6 µM | 37.3 µM | 36.5 µM | 49.7 µM | 29.3 µM | 64.4 µM | > 100 µM | 55.2 µM | 77.6 µM | 36.1 µM | > 100 µM | 27.6 µM | 22.9 µM | 56.1 µM
COc1ccc2c(C)cc(N/N=C/c3ccc(C)s3)nc2c1 | > 52.4 µM | > 90.9 µM | 37.9 µM | > 48.4 µM | 41.3 µM | 36.5 µM | 33.8 µM | 37.3 µM | 11.1 µM | > 35.7 µM | 16 µM | 51.7 µM | > 100 µM | 62.8 µM | > 48.8 µM | 9.24 µM | 43.6 µM | > 57 µM | 8.88 µM | 23.9 µM
